Consider ten compounds from ChEMBL document CHEMBL5380823, “Application and Study of ROCK Inhibitors in Pulmonary Fibrosis: Recent Developments and Future Perspectives” (J Med Chem, 2023).

A value given as a limit tells only on which side of the number the result lay.

The target of data set [1] is Rho-associated protein kinase 1 (Homo sapiens, UniProt Q13464). The data set is described as follows: Binding affinity to ROCK1 (unknown origin) assessed as inhibition constant.
For data set [2], the target named is T1, Rho-associated protein kinase 2 (Homo sapiens, UniProt O75116). The data set is described as follows: Binding affinity to ROCK2 (unknown origin) assessed as inhibition constant.
T1 sequence (O75116 whole entry): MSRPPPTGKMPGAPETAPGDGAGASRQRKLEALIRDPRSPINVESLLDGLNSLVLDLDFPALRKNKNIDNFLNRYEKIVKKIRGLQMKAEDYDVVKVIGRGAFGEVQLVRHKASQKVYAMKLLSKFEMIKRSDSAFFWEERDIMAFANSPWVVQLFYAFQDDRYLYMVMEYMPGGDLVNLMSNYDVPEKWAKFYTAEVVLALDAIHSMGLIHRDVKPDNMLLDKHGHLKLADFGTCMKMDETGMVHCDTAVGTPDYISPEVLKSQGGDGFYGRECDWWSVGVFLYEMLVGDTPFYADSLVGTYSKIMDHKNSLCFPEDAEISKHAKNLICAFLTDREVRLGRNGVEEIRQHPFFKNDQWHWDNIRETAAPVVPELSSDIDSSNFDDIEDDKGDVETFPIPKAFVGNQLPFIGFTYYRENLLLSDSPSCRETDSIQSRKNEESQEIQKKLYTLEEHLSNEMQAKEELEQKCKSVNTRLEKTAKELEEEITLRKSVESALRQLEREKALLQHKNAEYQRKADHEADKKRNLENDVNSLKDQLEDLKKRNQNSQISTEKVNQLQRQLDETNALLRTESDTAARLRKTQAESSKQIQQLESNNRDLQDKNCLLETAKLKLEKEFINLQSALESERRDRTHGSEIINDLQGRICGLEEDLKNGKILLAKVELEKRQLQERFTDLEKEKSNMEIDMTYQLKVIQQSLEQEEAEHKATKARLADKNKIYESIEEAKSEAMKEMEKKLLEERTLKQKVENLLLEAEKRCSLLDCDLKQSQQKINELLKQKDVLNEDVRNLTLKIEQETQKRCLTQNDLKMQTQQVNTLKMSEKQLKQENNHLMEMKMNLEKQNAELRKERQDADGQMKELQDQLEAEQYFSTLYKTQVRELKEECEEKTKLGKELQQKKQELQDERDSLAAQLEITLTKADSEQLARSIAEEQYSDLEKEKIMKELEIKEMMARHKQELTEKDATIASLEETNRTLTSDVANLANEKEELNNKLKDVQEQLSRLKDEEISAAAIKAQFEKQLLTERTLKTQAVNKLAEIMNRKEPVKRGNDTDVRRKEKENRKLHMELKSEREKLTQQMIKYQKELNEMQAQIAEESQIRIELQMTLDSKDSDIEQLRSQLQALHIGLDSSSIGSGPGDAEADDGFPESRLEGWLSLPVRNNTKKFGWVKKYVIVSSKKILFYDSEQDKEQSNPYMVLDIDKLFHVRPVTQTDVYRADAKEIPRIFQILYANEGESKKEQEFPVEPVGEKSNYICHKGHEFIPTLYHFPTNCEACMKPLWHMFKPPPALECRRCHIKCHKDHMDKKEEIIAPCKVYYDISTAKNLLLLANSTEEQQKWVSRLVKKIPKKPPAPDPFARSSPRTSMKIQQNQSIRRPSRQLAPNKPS
Data set [3] addresses T1, Rho-associated protein kinase 2. Description: Inhibition of ROCK2 (unknown origin).
The nature of data set [4]: Oral bioavailability in Wistar rat at 1 mg/kg. It counts as ADME, organism-based. Particulars: in vivo.
Data set [5] in a line: Half life in iv dosed Wistar rat at 0.5 mg/kg. The data set is classed as ADME, organism-based. Conditions: in vivo.
Data set [6] can be described thus: Oral bioavailability in BLM-induced Sprague-Dawley rat at 2 mg/kg measured upto 24 hrs. The data set is classed as ADME, organism-based. Conditions: in vivo.
Data set [7] is described as follows: Half life in BLM-induced Sprague-Dawley rat at 1 mg/kg, iv measured upto 24 hrs. Conditions: in vivo. The data set is classed as ADME, organism-based.

Chain of Rho-associated protein kinase 1 (Q13464 whole entry): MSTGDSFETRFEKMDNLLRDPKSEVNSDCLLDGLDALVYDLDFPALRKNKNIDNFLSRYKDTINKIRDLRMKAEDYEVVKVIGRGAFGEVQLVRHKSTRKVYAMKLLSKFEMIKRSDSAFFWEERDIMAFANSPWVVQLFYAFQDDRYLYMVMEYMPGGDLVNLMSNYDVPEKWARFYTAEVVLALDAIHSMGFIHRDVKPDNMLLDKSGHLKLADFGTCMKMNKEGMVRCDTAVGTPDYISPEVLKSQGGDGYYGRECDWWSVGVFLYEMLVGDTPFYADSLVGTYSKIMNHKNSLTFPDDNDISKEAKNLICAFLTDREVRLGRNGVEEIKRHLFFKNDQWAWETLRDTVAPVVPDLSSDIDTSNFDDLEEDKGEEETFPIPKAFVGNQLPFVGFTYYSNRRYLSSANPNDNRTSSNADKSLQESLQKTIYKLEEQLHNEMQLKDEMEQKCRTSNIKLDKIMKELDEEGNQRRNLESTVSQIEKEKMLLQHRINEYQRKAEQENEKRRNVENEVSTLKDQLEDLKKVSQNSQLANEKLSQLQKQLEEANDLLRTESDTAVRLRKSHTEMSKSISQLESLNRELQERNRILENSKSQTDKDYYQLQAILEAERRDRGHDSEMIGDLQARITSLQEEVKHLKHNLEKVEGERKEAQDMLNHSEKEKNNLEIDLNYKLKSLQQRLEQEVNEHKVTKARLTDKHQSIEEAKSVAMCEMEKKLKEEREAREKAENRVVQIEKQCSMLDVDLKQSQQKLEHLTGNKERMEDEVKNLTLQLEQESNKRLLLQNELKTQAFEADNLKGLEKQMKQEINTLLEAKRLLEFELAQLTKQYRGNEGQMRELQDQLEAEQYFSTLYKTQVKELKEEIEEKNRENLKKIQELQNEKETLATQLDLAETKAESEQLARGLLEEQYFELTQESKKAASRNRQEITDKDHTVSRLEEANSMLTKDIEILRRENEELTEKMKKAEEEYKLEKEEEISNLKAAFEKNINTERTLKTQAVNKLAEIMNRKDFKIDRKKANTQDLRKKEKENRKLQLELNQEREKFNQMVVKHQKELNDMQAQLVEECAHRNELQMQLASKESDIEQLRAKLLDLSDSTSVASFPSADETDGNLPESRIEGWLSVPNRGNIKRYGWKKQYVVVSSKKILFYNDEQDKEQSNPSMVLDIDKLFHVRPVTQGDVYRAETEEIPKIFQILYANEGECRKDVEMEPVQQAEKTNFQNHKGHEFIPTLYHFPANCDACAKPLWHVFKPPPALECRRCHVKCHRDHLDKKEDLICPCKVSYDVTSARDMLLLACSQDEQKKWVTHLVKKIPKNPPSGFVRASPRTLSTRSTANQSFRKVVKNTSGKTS

As a reminder, the Ki is a measure of affinity in units of concentration, obtained from inhibition or displacement. As to `c1cc(Oc2ccc3c(c2)CNCC3)c2c(-c3ccncc3)c[nH]c2c1`, the Ki in data set [1] and in data set [2] was less than 3 nM throughout.

The IC50 is the midpoint of a concentration-inhibition curve. A higher IC50 goes with a need for much substance. In turn, `COc1cccc(CN2CCN(c3ccc4c(c3)CCc3n[nH]cc3-4)C2=O)c1` gave an IC50 in data set [3] of less than 10 nM.

The bioavailability is the share of a dose that reaches the circulation, judged against a reference dose that is usually intravenous. A lower bioavailability goes with poor availability. Usually half-life stands for the time in which the quantity being followed falls by half. In data set [4], `Cc1c[nH]c2nccc(Oc3ccc(Nc4cc(Cl)nc(N)n4)cc3F)c12` gave a bioavailability of 48%. For the same compound, in data set [5], the half-life was 1.2 h.

`NC[C@@H](C(=O)Nc1ccc2cnsc2c1)c1ccc(CO)cc1`: it took 1.45 nM to reach half-maximal inhibition in data set [3] (IC50).

As for `COc1cccc(Cn2cnn(-c3ccc(-c4cn[nH]c4)cc3)c2=O)c1`, in data set [3], the IC50 was less than 5 nM.

As to `NC(=O)c1ccccc1O[C@H]1C[C@]2(C1)C[C@H](N1C(=O)NC(c3ccccc3Cl)C1=O)C2` (stereo partly drawn), in data set [3], the IC50 came out at 2 nM.

On to `COc1cc(-c2cc(C)cc(C)n2)sc1C(=O)NCC(O)CO` (stereo not drawn), for which the IC50 in data set [3] came out at 14 nM.

For `COc1cccc(CN2C(=O)N(c3ccc(-c4cn[nH]c4)c(OC)c3)CC23CC3)c1`, in data set [3], the IC50 was less than 3 nM.

With `Cc1c(C(=O)N[C@H]2C[C@]3(C2)C[C@H](c2n[nH]c(=O)c4ccccc42)C3)cnn1-c1ccccc1` (stereo partly drawn), in data set [3], the midpoint of inhibition, the IC50, lay at 0.2 nM.

On to `COc1cccc(C(CO)NC(=O)c2cccc(-c3ccc4[nH]ncc4c3)c2)c1` (stereo not drawn), for which the bioavailability in data set [6] came to 45%. Also, the half-life in data set [7] is 2.9 h.
